Reference: patent publication US9062043B2, “Fused tricyclic compounds as serine-threonine protein kinase and PARP modulators” (SENHWA BIOSCIENCES, INC., priority 2006, dated 2015)
Like-named read-outs stand apart in the source and are kept apart here.

Columns and labels:
[1] = tested on: HCT-116 human colorectal carcinoma cells; assay: Cell proliferation assay, Alamar Blue, HCT-116; type: cell-based;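 note: cells exposed to compound for about 4 days, then Alamar Blue added and fluorescence read after about 4 h, medium-only wells as control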
[2] = tested on: MiaPaca human pancreatic carcinoma cells; assay: Cell proliferation assay, Alamar Blue, MiaPaca; type: cell-based
Protocol: A representative cell-proliferation assay protocol using Alamar Blue dye (stored at 4° C., use 20 ul per well) is described hereafter.
c. Plate 4,000-5,000 cells per well in 100 μl of medium and seed into a 96-well plate according to the following plate layout. Add cell culture medium only to wells B10 to B12. Wells B1 to B9 have cells but no compound added.
d. Add 100 μl of 2× drug dilution to each well in a concentration shown in the plate layout above. At the same time, add 100 μl of media into the control wells (wells B10 to B12). Total volume is 200 μl/well.
e. Incubate four (4) days at 37° C., 5% CO2 in a humidified incubator.
f. Add 20 μl Alamar Blue reagent to each well.
g. Incubate for four (4) hours at 37° C., 5% CO2 in a humidified incubator.
h. Record fluorescence at an excitation wavelength of 544 nm and emission wavelength of 590 nm using a microplate reader.
In the assays, cells are cultured with a test compound for approximately four days, the dye then is added to the cells and fluorescence of […] dye is detected after approximately four hours. Different types of cells can be utilized in the assays (e.g., HCT-116 human colorectal carcinoma cells, PC-3 human prostatic cancer cells and MiaPaca human pancreatic carcinoma cells). Anti-proliferative effects of representative compounds are provided hereafter.

PARP = PARP (Homo sapiens (Human), UniProt P09874); assay: PARP assay (chemiluminescent PARP assay kit, Trevigen); type: biochemical; conditions: for inhibition at 20 µM: read-out: PARP % inhib @ 20 uM
Protocol: Modulatory activity of compounds described herein was assessed in vitro in cell-free CK2 assays. Modulatory activity of compounds described herein also are assessed in vitro in cell-free PARP assays. These assays are described hereafter.
PARP assays are conducted using a chemiluminescent PARP assay kit (Trevigen). Briefly, reactions are performed in Histone-coated strip wells, by adding 10 microliters test compound dissolved in 1×PARP Buffer (prepared by mixing 20×PARP buffer diluted with high-purity water) and 15 microliters diluted PARP-HSA enzyme (diluted in 1× PARP buffer, 0.1 unit per well) to 25 microliters PARP cocktail (prepared from 10×PARP cocktail and 10× activated DNA, both 2.5 microliters per well and 20 microliters per well of 1×PARP buffer). The reactions are incubated at ambient temperature for 60 minutes, then the liquid was removed. After washing the wells four times with PBS (200 ul), 50 microliters of STREP-HRP (Horseradish Peroxidase) solution (diluted 500-fold in 1× Strep-Diluent) was added and the reactions were allowed to incubate for 30 minutes at ambient temperature. The liquid was removed and, after washing the wells four times with PBS (200 ul), 50 microliters each of PeroxyGlo A and B (Chemiluminescent Horseradish Peroxidase substrates) are added and the resulting chemiluminescence quantified on the SpectraMax M5 plate reader.

[3] = HCT-116, Table 16, second HCT-116 column
[4] = HCT-116, Table 16, first HCT-116 column
[5] = 1 uM, Table 12, read-out: PARP % inhib @ 1 uM

PARP, sequence (P09874 whole entry): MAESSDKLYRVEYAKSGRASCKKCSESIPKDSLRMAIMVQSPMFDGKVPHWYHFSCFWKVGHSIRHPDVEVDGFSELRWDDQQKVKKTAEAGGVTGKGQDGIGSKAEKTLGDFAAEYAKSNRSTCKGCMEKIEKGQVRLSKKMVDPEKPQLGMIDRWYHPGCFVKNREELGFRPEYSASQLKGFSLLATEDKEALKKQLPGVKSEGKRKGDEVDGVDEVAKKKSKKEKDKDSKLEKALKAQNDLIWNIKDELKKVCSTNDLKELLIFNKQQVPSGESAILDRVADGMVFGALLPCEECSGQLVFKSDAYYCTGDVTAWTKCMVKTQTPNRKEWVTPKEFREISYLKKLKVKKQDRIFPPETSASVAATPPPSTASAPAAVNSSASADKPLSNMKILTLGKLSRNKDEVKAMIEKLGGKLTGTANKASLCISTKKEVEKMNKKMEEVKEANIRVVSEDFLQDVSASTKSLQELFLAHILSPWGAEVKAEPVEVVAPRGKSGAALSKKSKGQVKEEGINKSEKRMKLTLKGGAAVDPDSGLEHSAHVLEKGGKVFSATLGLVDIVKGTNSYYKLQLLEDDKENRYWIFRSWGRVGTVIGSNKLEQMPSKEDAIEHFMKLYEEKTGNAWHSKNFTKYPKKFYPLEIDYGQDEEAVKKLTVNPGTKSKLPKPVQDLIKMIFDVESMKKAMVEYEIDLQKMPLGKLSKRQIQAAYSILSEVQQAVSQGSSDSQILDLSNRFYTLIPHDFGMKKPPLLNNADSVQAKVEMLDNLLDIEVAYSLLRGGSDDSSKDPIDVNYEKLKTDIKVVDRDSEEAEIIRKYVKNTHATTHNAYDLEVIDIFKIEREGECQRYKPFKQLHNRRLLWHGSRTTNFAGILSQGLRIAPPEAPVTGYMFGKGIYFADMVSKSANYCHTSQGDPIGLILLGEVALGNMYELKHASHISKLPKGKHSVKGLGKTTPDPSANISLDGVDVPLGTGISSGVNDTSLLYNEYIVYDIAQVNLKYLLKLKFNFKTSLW

Compound | IC50 [1, 3] | IC50 ([2]; MIA PaCa-2, Table 16) | also measured
CCOc1cccc(Nc2nc3cc(C(=O)O)ccc3c3sccc23)c1 | > 10 µM | > 10 µM | 
CC(=O)N1CCN(C(=O)c2cccc(Nc3nc4cc(-c5nnn[nH]5)ccc4c4sccc34)c2)CC1 | > 10 µM | > 10 µM | 
CC(C)(C)OC(=O)CCNC(=O)c1cccc(Nc2nc3cc(-c4nnn[nH]4)ccc3c3sccc23)c1 |  | > 10 µM | 
O=C(O)c1ccc2c(c1)nc(Nc1cccc(C(F)(F)F)c1)c1ccsc12 | > 10 µM | > 10 µM | 
Cc1cccc(Nc2nc3cc(C(=O)O)ccc3c3sccc23)c1 | > 10 µM | > 10 µM | 
O=C(O)c1ccc2c(c1)nc(Nc1cccc(-c3ccccc3)c1)c1ccsc12 |  | > 10 µM | 
O=C(O)c1ccc2c(c1)nc(Nc1cc(F)ccc1F)c1ccsc12 | > 10 µM | > 10 µM | 
O=C(O)c1ccc2c(c1)nc(NCc1cccnc1)c1nc(NC3CC3)ncc12 [drawing 1083] |  |  | IC50 ([1]; HCT-116, Table 18): > 10 µM; IC50 ([2]; MIA PaCa-2, Table 18): 13.8 µM
O=C(O)c1ccc2c(c1)nc(NCc1ccccc1)c1nc(NC3CC3)ncc12 [drawing 1084] |  |  | IC50 ([1]; HCT-116, Table 18): > 10 µM; IC50 ([2]; MIA PaCa-2, Table 18): 12.9 µM
COc1cccc(Nc2nc3cc(C(=O)O)ccc3c3sccc23)c1 |  | > 10 µM | IC50 [1, 4]: > 10 µM
O=C(O)c1ccc2c(c1)nc(Nc1ccc3cc[nH]c3c1)c1ccsc12 | > 10 µM | > 10 µM | 
Cc1cc(CNC(=O)c2cccc(Nc3nc4cc(-c5nnn[nH]5)ccc4c4sccc34)c2)no1 | > 10 µM | > 10 µM | 
COC(=O)c1ccc2c(c1)nc(NC1CC1)c1nc(SC)ncc12 [drawing 1099] |  |  | IC50 ([2]; MIA PaCa-2, Table 18): > 50 µM
O=C(O)c1ccc2c(c1)nc(Nc1ccc(F)c(Cl)c1)c1ccsc12 |  | > 10 µM | IC50 [1, 4]: > 10 µM
O=C(O)c1ccc2c(c1)nc(NC1CC1)c1ccncc12 [drawing 1097] |  |  | IC50 ([1]; HCT-116, Table 18): > 10 µM; IC50 ([2]; MIA PaCa-2, Table 18): 26.5 µM
O=C(O)c1ccc2c(c1)nc(Nc1cccc(S(=O)(=O)NC3CC3)c1)c1ccsc12 | > 10 µM | > 10 µM | 
COCCNC(=O)c1cccc(Nc2nc3cc(-c4nnn[nH]4)ccc3c3sccc23)c1 | > 10 µM | > 10 µM | 
O=C(O)c1ccc2c(c1)nc(Nc1cccc(Br)c1)c1ccsc12 | > 10 µM | > 10 µM | 
O=C(O)c1ccc2c(c1)nc(Nc1cccc(I)c1)c1ccsc12 | > 10 µM | 9.44 µM | 
Brc1cccc(Nc2nc3cc(-c4nnn[nH]4)ccc3c3sccc23)c1 | > 10 µM | > 10 µM | 
CNC(=O)Cc1cccc(Nc2nc3cc(C(=O)O)ccc3c3sccc23)c1 | > 10 µM | > 10 µM | 
CCc1cccc(Nc2nc3cc(C(=O)O)ccc3c3sccc23)c1 | > 10 µM | > 10 µM | 

Compound | IC50 [1, 3] | IC50 ([2]; MIA PaCa-2, Table 16) | also measured
CCOc1ncc2c(n1)c(NC1CC1)nc1cc(C(=O)O)ccc12 [drawing 1073] |  |  | IC50 ([1]; HCT-116, Table 18): > 10 µM; IC50 ([2]; MIA PaCa-2, Table 18): > 50 µM
O=C(O)c1ccc2c(c1)nc(Nc1cc(F)cc(C(F)(F)F)c1)c1ccsc12 | > 10 µM | > 10 µM | 
Fc1cc(F)cc(Nc2nc3cc(-c4nnn[nH]4)ccc3c3sccc23)c1 | > 10 µM | > 10 µM | 
O=C(O)c1ccc2c(c1)nc(Nc1ccc3[nH]ccc3c1)c1ccsc12 | > 10 µM | > 10 µM | 
NC(=O)c1ccc2c(c1)[nH]c(=O)c1ccsc12 |  |  | inhibition at 1 µM (PARP; [5]): 79%; IC50 (PARP; Table 12): 0.06 µM
O=C(O)c1ccc2c(c1)nc(Nc1cc(F)cc(Cl)c1)c1ccsc12 | > 10 µM | > 10 µM | 
O=C(c1ccc2c(c1)[nH]c(=O)c1ccsc12)N1CCOCC1 |  |  | inhibition at 1 µM (PARP; [5]): 82%; inhibition at 20 µM (PARP; Table 12): 95%; IC50 (PARP; Table 12): 0.4 µM
O=C(O)c1ccc2c(c1)nc(NCc1ccccc1)c1ccncc12 [drawing 1020] |  |  | IC50 ([1]; HCT-116, Table 18): > 10 µM; IC50 ([2]; MIA PaCa-2, Table 18): 31.2 µM
O=C(Nc1ccc(Cl)cc1)c1ccc2c(c1)[nH]c(=O)c1ccsc12 |  |  | inhibition at 1 µM (PARP; [5]): 0%; inhibition at 20 µM (PARP; Table 12): 55%
O=C(O)c1cccc(Nc2nc3cc(-c4nnn[nH]4)ccc3c3sccc23)c1 |  | > 10 µM | 
O=C(NCc1cccnc1)c1cccc(Nc2nc3cc(-c4nnn[nH]4)ccc3c3sccc23)c1 | > 10 µM | > 10 µM | 
O=C(Nc1ccccc1)c1ccc2c(c1)[nH]c(=O)c1ccsc12 |  |  | inhibition at 1 µM (PARP; [5]): 0%; inhibition at 20 µM (PARP; Table 12): 22%
COC(=O)CNC(=O)c1ccc2c(c1)[nH]c(=O)c1ccsc12 |  |  | inhibition at 1 µM (PARP; [5]): 47%; inhibition at 20 µM (PARP; Table 12): 93%
O=C(O)c1ccc2c(c1)nc(Nc1ccc(F)c(F)c1)c1ccsc12 | 0.83 µM | > 10 µM | 
N#Cc1cc(F)cc(Nc2nc3cc(C(=O)O)ccc3c3sccc23)c1 | > 10 µM | > 10 µM | 
COc1ccc(NC(=O)c2ccc3c(c2)[nH]c(=O)c2ccsc23)c(OC)c1 |  |  | inhibition at 1 µM (PARP; [5]): 0%; inhibition at 20 µM (PARP; Table 12): 32%
O=C(NCCc1cnc[nH]1)c1ccc2c(c1)[nH]c(=O)c1ccsc12 |  |  | inhibition at 1 µM (PARP; [5]): 83%; inhibition at 20 µM (PARP; Table 12): 97%; IC50 (PARP; Table 12): 0.2 µM
CN(C)CCNc1nc2cc(C(=O)O)ccc2c2cnc(NC3CC3)nc12 [drawing 1100] |  |  | IC50 ([2]; MIA PaCa-2, Table 18): > 50 µM
O=C(Nc1nccs1)c1ccc2c(c1)[nH]c(=O)c1ccsc12 |  |  | inhibition at 1 µM (PARP; [5]): 0%; inhibition at 20 µM (PARP; Table 12): 52%
COc1ccc(CCNC(=O)c2ccc3c(c2)[nH]c(=O)c2ccsc23)cc1OC |  |  | inhibition at 1 µM (PARP; [5]): 15%; inhibition at 20 µM (PARP; Table 12): 67%
O=C(NCCc1ccccc1)c1ccc2c(c1)[nH]c(=O)c1ccsc12 |  |  | inhibition at 1 µM (PARP; [5]): 64%; IC50 (PARP; Table 12): 0.5 µM
Cc1cc(Nc2ncc3c(n2)c(Nc2ccc(F)c(Cl)c2)nc2cc(C(=O)O)ccc23)[nH]n1 [drawing 1093] |  |  | IC50 ([1]; HCT-116, Table 18): > 10 µM; IC50 ([2]; MIA PaCa-2, Table 18): 18.2 µM

Compound | IC50 [1, 3] | IC50 ([2]; MIA PaCa-2, Table 16) | also measured
CN(C)C(=O)c1ccc2c(c1)[nH]c(=O)c1ccsc12 |  |  | inhibition at 1 µM (PARP; [5]): 89%; inhibition at 20 µM (PARP; Table 12): 97%; IC50 (PARP; Table 12): 0.2 µM
CN(C)c1ncc2c(n1)c(Nc1cccc(Cl)c1)nc1cc(C(=O)O)ccc12 |  |  | IC50 ([2]; MIA PaCa-2, Table 18): > 50 µM
CC(C)(C)OC(=O)N1CCN(C(=O)c2ccc3c(c2)[nH]c(=O)c2ccsc23)CC1 |  |  | inhibition at 1 µM (PARP; [5]): 72%; IC50 (PARP; Table 12): 0.3 µM
O=c1c2ccccc2c2ccc(-c3nnn[nH]3)cc2n1CCCO |  |  | inhibition at 1 µM (PARP; at 1 μM, Table 10, read-out: PARP Inhibition %): 33%
O=C(O)c1ccc2c(c1)nc(Nc1cccc(F)c1F)c1ccsc12 | > 10 µM | > 10 µM | 
NS(=O)(=O)c1cccc(Nc2nc3cc(-c4nnn[nH]4)ccc3c3sccc23)c1 | > 10 µM | > 10 µM | 
COCCNC(=O)c1ccc2c(c1)[nH]c(=O)c1ccsc12 |  |  | inhibition at 1 µM (PARP; [5]): 65%; inhibition at 20 µM (PARP; Table 12): 93%; IC50 (PARP; Table 12): 0.4 µM
O=C(NCc1cccnc1)c1ccc2c(c1)[nH]c(=O)c1ccsc12 |  |  | inhibition at 1 µM (PARP; [5]): 71%
CN(C)C(=O)c1cccc(Nc2nc3cc(-c4nnn[nH]4)ccc3c3sccc23)c1 | > 10 µM | > 10 µM | 
Nc1ncc2c(n1)c(NC1CC1)nc1cc(C(=O)O)ccc12 [drawing 1102] |  |  | IC50 ([1]; HCT-116, Table 18): > 10 µM; IC50 ([2]; MIA PaCa-2, Table 18): > 50 µM
CNS(=O)(=O)c1cccc(Nc2nc3cc(C(=O)O)ccc3c3sccc23)c1 | > 10 µM | > 10 µM | 
O=C(c1cccc(Nc2nc3cc(-c4nnn[nH]4)ccc3c3sccc23)c1)N1CCOCC1 | > 10 µM | > 10 µM | 
C#Cc1cccc(Nc2nc3cc(-c4nnn[nH]4)ccc3c3sccc23)c1 | > 10 µM | > 10 µM | 
O=C(O)c1ccc2c(c1)nc(Nc1cccc(Cl)c1F)c1ccsc12 | > 10 µM | > 10 µM | 
O=C(NCc1ccccn1)c1ccc2c(c1)[nH]c(=O)c1ccsc12 |  |  | inhibition at 1 µM (PARP; [5]): 71%; IC50 (PARP; Table 12): 1 µM
CN(C)CCNC(=O)c1cccc(Nc2nc3cc(-c4nnn[nH]4)ccc3c3sccc23)c1 | > 10 µM | > 10 µM | 
O=C(O)c1cc(F)cc(Nc2nc3cc(C(=O)O)ccc3c3sccc23)c1 | > 10 µM | > 10 µM | 
O=C(O)c1ccc2c(c1)[nH]c(=O)c1cc(Br)sc12 |  |  | inhibition at 1 µM (PARP; [5]): 39%; inhibition at 20 µM (PARP; Table 12): 84%
COC(=O)CNC(=O)c1cccc(Nc2nc3cc(-c4nnn[nH]4)ccc3c3sccc23)c1 | > 10 µM | > 10 µM | 
Fc1cc(Cl)cc(Nc2nc3cc(-c4nnn[nH]4)ccc3c3sccc23)c1 | > 10 µM | > 10 µM | 
CC(=O)N1CCN(C(=O)c2ccc3c(c2)[nH]c(=O)c2ccsc23)CC1 |  |  | inhibition at 1 µM (PARP; [5]): 71%; inhibition at 20 µM (PARP; Table 12): 94%; IC50 (PARP; Table 12): 0.3 µM
